From patent publication US20230382925A1, “MODULATORS OF CYSTIC FIBROSIS TRANSMEMBRANE CONDUCTANCE REGULATOR” (VERTEX PHARMACEUTICALS INCORPORATED, priority 2020, published 2023) come the findings set out here.

Where two headings read alike, the source gives them in different places.

This assay addresses CFTR (Homo sapiens, UniProt P13569). Kind of assay: Membrane Potential Dye, Enteroid Assay B. The format is cell-based. Put shortly: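 Human intestinal enteroid cells exposed to compound 18-24 h at 37 °C, then loaded with methyl oxonol membrane-potential dye plus CaCC blockers. Chloride transport triggered in chloride-free buffer with 10 μM forskolin, 100 μM IBMX, 300 nM Compound III; fluorescence read 15 min, expressed as % of triple-corrector/potentiator combination control.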

Setting [1] is: Table 10, read-out: Ent. B EC50.

Sequence of CFTR (P13569 with tags, fused parts or gaps DEL508-508): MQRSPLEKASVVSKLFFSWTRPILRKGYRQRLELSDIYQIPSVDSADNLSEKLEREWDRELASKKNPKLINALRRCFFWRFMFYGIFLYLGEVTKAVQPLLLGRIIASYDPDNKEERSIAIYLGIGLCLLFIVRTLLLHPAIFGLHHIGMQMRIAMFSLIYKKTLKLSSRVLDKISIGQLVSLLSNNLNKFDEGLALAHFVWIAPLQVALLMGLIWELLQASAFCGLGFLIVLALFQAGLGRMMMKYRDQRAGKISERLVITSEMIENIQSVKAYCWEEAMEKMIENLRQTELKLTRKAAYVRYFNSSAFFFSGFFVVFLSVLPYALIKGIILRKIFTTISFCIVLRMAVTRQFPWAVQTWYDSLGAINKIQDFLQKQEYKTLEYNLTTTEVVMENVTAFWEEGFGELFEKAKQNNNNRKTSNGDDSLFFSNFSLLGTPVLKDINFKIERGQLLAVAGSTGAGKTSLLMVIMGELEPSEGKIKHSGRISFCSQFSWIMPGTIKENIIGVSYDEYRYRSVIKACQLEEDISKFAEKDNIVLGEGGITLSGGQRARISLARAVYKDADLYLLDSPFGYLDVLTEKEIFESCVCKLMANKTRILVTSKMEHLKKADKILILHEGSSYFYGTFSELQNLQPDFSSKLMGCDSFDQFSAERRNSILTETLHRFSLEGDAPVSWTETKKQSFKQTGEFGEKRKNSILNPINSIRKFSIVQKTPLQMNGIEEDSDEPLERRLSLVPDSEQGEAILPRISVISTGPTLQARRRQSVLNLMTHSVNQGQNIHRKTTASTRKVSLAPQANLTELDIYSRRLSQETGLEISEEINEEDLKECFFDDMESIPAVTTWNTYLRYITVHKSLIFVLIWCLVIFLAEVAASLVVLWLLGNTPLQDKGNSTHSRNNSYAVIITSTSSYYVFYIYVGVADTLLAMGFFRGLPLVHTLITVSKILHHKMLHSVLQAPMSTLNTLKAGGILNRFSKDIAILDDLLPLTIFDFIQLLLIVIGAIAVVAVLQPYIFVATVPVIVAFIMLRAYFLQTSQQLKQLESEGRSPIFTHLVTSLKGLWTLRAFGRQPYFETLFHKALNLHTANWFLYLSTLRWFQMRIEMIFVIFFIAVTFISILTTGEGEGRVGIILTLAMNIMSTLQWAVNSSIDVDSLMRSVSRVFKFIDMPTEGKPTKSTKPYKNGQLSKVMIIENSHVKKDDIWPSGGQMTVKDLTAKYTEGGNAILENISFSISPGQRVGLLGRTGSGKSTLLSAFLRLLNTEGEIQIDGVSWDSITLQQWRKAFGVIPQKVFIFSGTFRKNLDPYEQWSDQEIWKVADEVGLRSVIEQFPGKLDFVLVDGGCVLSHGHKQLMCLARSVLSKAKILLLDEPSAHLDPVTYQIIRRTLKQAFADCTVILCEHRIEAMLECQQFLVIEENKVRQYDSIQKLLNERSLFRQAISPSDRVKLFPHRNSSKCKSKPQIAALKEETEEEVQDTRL

What is called EC50 is the concentration at which the effect is half-maximal. Turning to `Cc1cccc(C)c1-c1cc2nc(n1)NS(=O)(=O)c1cccc(c1)C(=O)N([C@H]1C[C@@]3(C[C@H](NC(C)C)C3)C1)[C@H](CC1(C(F)(F)F)CC1)CO2` (stereo partly shown) [Compound 266], the “Ent. B Max Activity (%)” value (Table 9) was “+++ (+++ is >60%)”. Also, the EC50 (Table 9, read-out: Ent. B EC50) is less than 1 µM.
Consider `COCCCN1CCC2(CC1)CC(N1C(=O)c3cccc(c3)S(=O)(=O)Nc3nc(cc(-c4c(C)cccc4C)n3)OC[C@H]1CC(C)(C)C(F)(F)F)C2` [Compound 188, (11R)-6-(2,6-dimethylphenyl)-12-[7-(3-methoxypropyl)-7-azaspiro[3.5]nonan-2-yl]-11-(3,3,3-trifluoro-2,2-dimethylpropyl)-9-oxa-2λ^6-thia-3,5,12,19-tetraazatricyclo[12.3.1.14,8]nonadeca-1(17),4(19),5,7,14(18),15-hexaene-2,2,13-trione], for which the “Ent. B Max Activity (%)” value (Table 9) is “+++ (+++ is >60%)”. In addition, the EC50 (Table 9, read-out: Ent. B EC50) was less than 1 µM.
`Cc1cccc(C)c1-c1cc2nc(n1)NS(=O)(=O)c1cccc(c1)C(=O)N(C1CC(N(C)C)C1)[C@H](CC(C)(C)C)CO2` (stereo partly shown) [Compound 254]: under “Table 10”, the “Ent. B Max Activity (%)” value is recorded as “++ (++ is 30-60%)”. In addition, the EC50 under setting [1] was less than 1 µM.
As to `Cc1cccc(C)c1-c1cc2nc(n1)NS(=O)(=O)c1cccc(c1)C(=O)N([C@H]1C[C@@H](CNC(=O)OC(C)C)C1)[C@H](CC(C)C)CO2` (single isomer, unassigned) [Compound 108], the “Ent. B Max Activity (%)” value (Table 9) is given as “+++ (+++ is >60%)”. Moreover, the EC50 (Table 9, read-out: Ent. B EC50) is less than 1 µM.
`CCC(=O)N[C@H]1C[C@]2(C1)C[C@H](N1C(=O)c3cccc(c3)S(=O)(=O)Nc3nc(cc(-c4c(C)cccc4C)n3)OC[C@H]1CC1(C(F)(F)F)CC1)C2` (stereo partly shown) [Compound 249]: the “Ent. B Max Activity (%)” value (Table 10) was “+++ (+++ is >60%)”. Besides, the 50% effective concentration (EC50) under setting [1] was less than 1 µM.
On to `COC(=O)N[C@H]1C[C@@]2(C1)C[C@H](N1C(=O)c3cccc(c3)S(=O)(=O)Nc3nc(cc(-c4c(C)cccc4C)n3)OC[C@H]1CC1(C(F)(F)F)CC1)C2` (stereo partly shown) [Compound 273], for which the “Ent. B Max Activity (%)” value (Table 9) was “+++ (+++ is >60%)”. The EC50 (Table 9, read-out: Ent. B EC50) was less than 1 µM.
On to `Cc1cccc(C)c1-c1cc2nc(n1)NS(=O)(=O)c1cccc(c1)C(=O)N(C1CC3(CCN(CCOC4CC4)CC3)C1)[C@H](CC(C)C)CO2` [Compound 278], for which the “Ent. B Max Activity (%)” value (Table 9) is recorded as “+++ (+++ is >60%)”. The EC50 (Table 9, read-out: Ent. B EC50) was less than 1 µM.
On the same counts, the results for `COC(=O)NC1CC(N2C(=O)c3cccc(c3)S(=O)(=O)Nc3nc(cc(-c4c(C)cccc4C)n3)OC[C@H]2CC2(C(F)(F)F)CC2)C1` (single isomer, unassigned) [Compound 53] are “+++ (+++ is >60%)” and less than 1 µM.
On the same counts, the results for `Cc1cccc(C)c1-c1cc2nc(n1)NS(=O)(=O)c1cccc(c1)C(=O)N(C1CC(N[C@H]3CC[C@H](CO)CC3)C1)[C@H](CC(C)C)CO2` (stereo partly shown) [Compound 373] are “+++ (+++ is >60%)” and less than 1 µM.
Consider `COC1CN([C@H]2C[C@@H](N3C(=O)c4cccc(c4)S(=O)(=O)Nc4nc(cc(-c5c(C)cccc5C)n4)OC[C@H]3CC(C)C)C2)C1` [Compound 65, (11R)-6-(2,6-dimethylphenyl)-11-isobutyl-12-[3-(3-methoxyazetidin-1-yl)cyclobutyl]-2,2-dioxo-9-oxa-2λ^6-thia-3,5,12,19-tetrazatricyclo[12.3.1.14,8]nonadeca-1(18),4(19),5,7,14,16-hexaen-13-one], for which the “Ent. B Max Activity (%)” value (Table 9) is reported as “+++ (+++ is >60%)”. The concentration for a half-maximal effect (EC50) (Table 9, read-out: Ent. B EC50) was less than 1 µM.
As to `COC1CCN(C(=O)C2CC(N3C(=O)c4cccc(c4)S(=O)(=O)Nc4nc(cc(-c5c(C)cccc5C)n4)OC[C@H]3CC(C)C)C2)CC1` (stereo partly shown) [Compound 308], the “Ent. B Max Activity (%)” value was “+++ (+++ is >60%)”. For the setting “read-out: Ent. B EC50”, the EC50 is less than 1 µM.
Take `COCCN(C)[C@H]1C[C@]2(C1)C[C@H](N1C(=O)c3cccc(c3)S(=O)(=O)Nc3nc(cc(-c4c(C)cccc4C)n3)OC[C@H]1CC1(C(F)(F)F)CC1)C2` (stereo partly drawn) [Compound 82, (R)-1^6-(2,6-Dimethylphenyl)-6-((2S,4s,6S)-6-((2-methoxyethyl)(methyl)amino)spiro[3.3]heptan-2-yl)-7-((1-(trifluoromethyl)cyclopropyl)methyl)-9-oxa-3-thia-2,6-diaza-1(2,4)-pyrimidina-4(1,3)-benzenacyclononaphan-5-one 3,3-dioxide]: the “Ent. B Max Activity (%)” value (Table 9) was “+++ (+++ is >60%)”. Further, where the note is “Table 9, read-out: Ent. B EC50”, the EC50 is less than 1 µM.
On the same counts, the results for `COCC(=O)N1CCC2(CC1)CC(N1C(=O)c3cccc(c3)S(=O)(=O)Nc3nc(cc(-c4c(C)cccc4C)n3)OC[C@H]1CC(C)C)C2` [Compound 459] are “+++ (+++ is >60%)” and less than 1 µM.
For the compound `Cc1cccc(C)c1-c1cc2nc(n1)NS(=O)(=O)c1cccc(c1)C(=O)N([C@H]1C[C@@H](N3CCOCC3)C1)[C@H](CC(C)C)CO2` [Compound 387], under “Table 9”, the “Ent. B Max Activity (%)” value was “+++ (+++ is >60%)”. In addition, the EC50 (Table 9, read-out: Ent. B EC50) was less than 1 µM.
For `CC(=O)NCC[C@H]1C[C@@H](N2C(=O)c3cccc(c3)S(=O)(=O)Nc3nc(cc(-c4c(C)cccc4C)n3)OC[C@H]2CC(C)(C)C)C1` (single isomer, unassigned) [Compound 154], the “Ent. B Max Activity (%)” value (Table 10) is reported as “+++ (+++ is >60%)”. Besides, the concentration giving a half-maximal response (EC50) under setting [1] was less than 1 µM.
For `Cc1cccc(C)c1-c1cc2nc(n1)NS(=O)(=O)c1cccc(c1)C(=O)N(C1CC3(COC(=O)N3C)C1)[C@H](CC(C)(C)C)CO2` (single isomer, unassigned) [Compound 177], the “Ent. B Max Activity (%)” value (Table 10) is “++ (++ is 30-60%)”. Also, the EC50 under setting [1] was less than 1 µM.
On the same counts, the results for `Cc1cccc(C)c1-c1cc2nc(n1)NS(=O)(=O)c1cccc(c1)C(=O)N(C1CC(N(C)C)C1)[C@H](CC(C)(C)C)CO2` (stereo partly shown) [Compound 253] are “++ (++ is 30-60%)” and less than 1 µM.
In the case of `Cc1cccc(C)c1-c1cc2nc(n1)NS(=O)(=O)c1cccc(c1)C(=O)N(C1CC3(CCN(C(=O)COC(C)(C)C)CC3)C1)[C@H](CC(C)C)CO2` [Compound 460], the “Ent. B Max Activity (%)” value (Table 9) is listed as “+++ (+++ is >60%)”. For the same compound, the half-maximal effective concentration (EC50) (Table 9, read-out: Ent. B EC50) was less than 1 µM.
On the same counts, the results for `Cc1cccc(C)c1-c1cc2nc(n1)NS(=O)(=O)c1cccc(c1)C(=O)N(C1CC3(CC(N)C3)C1)[C@H](CC(C)C)CO2` (stereo in doubt) [Compound 292] are “+++ (+++ is >60%)” and less than 1 µM.
As to `Cc1cccc(C)c1-c1cc2nc(n1)NS(=O)(=O)c1cccc(c1)C(=O)N([C@H]1C[C@@H](NC(=O)OC(C)C)C1)[C@H](CC(C)C)CO2` (single isomer, unassigned) [Compound 63], the “Ent. B Max Activity (%)” value is reported as “+++ (+++ is >60%)”. Moreover, the EC50 (read-out: Ent. B EC50) is less than 1 µM.
On the same counts, the results for `COCCN(C)C(=O)C1CC(N2C(=O)c3cccc(c3)S(=O)(=O)Nc3nc(cc(-c4c(C)cccc4C)n3)OC[C@H]2CC(C)C)C1` (stereo partly shown) [Compound 306] are “+++ (+++ is >60%)” and less than 1 µM.
`CCC(=O)N1C[C@H]2C[C@@H](C1)[C@H]2N1C(=O)c2cccc(c2)S(=O)(=O)Nc2nc(cc(-c3c(C)cccc3C)n2)OC[C@H]1CC(C)(C)C` [Compound 231]: the “Ent. B Max Activity (%)” value (Table 10) was “++ (++ is 30-60%)”. Also, the concentration giving a half-maximal response (EC50) (read-out: Ent. B EC50, Table 10) is less than 1 µM.
As to `Cc1cccc(C)c1-c1cc2nc(n1)NS(=O)(=O)c1cccc(c1)C(=O)N(C1CC(N[C@H]3CC[C@@H](O)CC3)C1)[C@H](CC(C)C)CO2` (stereo partly shown) [Compound 371], where the note is “Table 9”, the “Ent. B Max Activity (%)” value is “+++ (+++ is >60%)”. Moreover, the EC50 (Table 9, read-out: Ent. B EC50) lay within 1 to 3 µM.
As for `Cc1cccc(C)c1-c1cc2nc(n1)NS(=O)(=O)c1cccc(c1)C(=O)N([C@H]1C[C@@H](N3CCOC3=O)C1)[C@H](CC(C)(C)C)CO2` (stereo in doubt) [Compound 251], the “Ent. B Max Activity (%)” value (Table 10) is “+++ (+++ is >60%)”. For the same compound, the EC50 under setting [1] was less than 1 µM.
On to `Cc1cccc(C)c1-c1cc2nc(n1)NS(=O)(=O)c1cccc(c1)C(=O)N(C1CC3(CCN(C(=O)OC(C)C)CC3)C1)[C@H](CC(C)(C)C(F)(F)F)CO2` [Compound 421], for which, for the setting “Table 9”, the “Ent. B Max Activity (%)” value is “+++ (+++ is >60%)”. Further, the EC50 (Table 9, read-out: Ent. B EC50) was less than 1 µM.
For `Cc1cccc(C)c1-c1cc2nc(n1)NS(=O)(=O)c1cccc(c1)C(=O)N(C1CC(NC(=O)OC(C)C)C1)[C@H](CC1(C(F)(F)F)CC1)CO2` (single isomer, unassigned) [Compound 60], the “Ent. B Max Activity (%)” value (Table 9) is “+++ (+++ is >60%)”. Also, where the note is “Table 9, read-out: Ent. B EC50”, the EC50 is less than 1 µM.
For `CCN(C(=O)OC)C1CC2(C1)CC(N1C(=O)c3cccc(c3)S(=O)(=O)Nc3nc(cc(-c4c(C)cccc4C)n3)OC[C@H]1CC(C)(C)C)C2` (stereo in doubt) [Compound 236], under “Table 10”, the “Ent. B Max Activity (%)” value is given as “++ (++ is 30-60%)”. In addition, the EC50 under setting [1] was less than 1 µM.
As for `[H][C@]1(N2C(=O)c3cccc(c3)S(=O)(=O)Nc3nc(cc(-c4c(C)cccc4C)n3)OC[C@H]2CC(C)C)C[C@@]2(C[C@H](N(C)CCOC)C2)C1` (stereo partly shown) [Compound 286], the “Ent. B Max Activity (%)” value (Table 9) is listed as “+++ (+++ is >60%)”. Besides, the EC50 (Table 9, read-out: Ent. B EC50) was less than 1 µM.
On the same counts, the results for `COC(=O)N[C@H]1CC2(C1)C[C@H](N1C(=O)c3cccc(c3)S(=O)(=O)Nc3nc(cc(-c4c(C)cccc4C)n3)OC[C@H]1CC1(C(F)(F)F)CC1)C2` (stereo partly shown) [Compound 274] are “+++ (+++ is >60%)” and less than 1 µM.
As to `COC(=O)NC1(C)CC(N2C(=O)c3cccc(c3)S(=O)(=O)Nc3nc(cc(-c4c(C)cccc4C)n3)OC[C@H]2CC(C)(C)C)C1` (single isomer, unassigned) [Compound 171], for the setting “Table 10”, the “Ent. B Max Activity (%)” value is “+++ (+++ is >60%)”. The EC50 under setting [1] was less than 1 µM.
On to `Cc1cccc(C)c1-c1cc2nc(n1)NS(=O)(=O)c1cccc(c1)C(=O)N([C@H]1C[C@@H](NC(C)C)C1)[C@H](CC(C)C)CO2` [Compound 367], for which the “Ent. B Max Activity (%)” value (Table 9) was “+++ (+++ is >60%)”. The EC50 (Table 9, read-out: Ent. B EC50) was less than 1 µM.
Take `Cc1cccc(C)c1-c1cc2nc(n1)NS(=O)(=O)c1cccc(c1)C(=O)N([C@H]1C[C@@]3(C[C@H](NC(=O)C(C)C)C3)C1)[C@H](CC1(C(F)(F)F)CC1)CO2` (stereo partly shown) [Compound 247]: the “Ent. B Max Activity (%)” value (Table 10) is “+++ (+++ is >60%)”. Further, the EC50 under setting [1] is less than 1 µM.
